Source: paper PMC7886321, “Deciphering the LRRK code: LRRK1 and LRRK2 phosphorylate distinct Rab proteins and are regulated by diverse mechanisms” (Biochemical Journal, 2021)

Assays:
LRRK2 = target: T1, LRRK2 (Homo sapiens, UniProt Q5S007); test: HEK293 overexpression, pRab10 Thr73 and pSer935 LRRK2 immunoblot; type: cell-based
T1 construct: wild type LRRK2 overexpressed in HEK293 cells

LRRK1 = target: T2, LRRK1 (Homo sapiens, UniProt Q38SD2); test: in vitro kinase assay, Rab7A Ser72 phosphorylation by immunoblot, […] ATP; type: biochemical
T2 construct: recombinant LRRK1, residues 28 to 2015
T2 sequence (Q38SD2 28-2015): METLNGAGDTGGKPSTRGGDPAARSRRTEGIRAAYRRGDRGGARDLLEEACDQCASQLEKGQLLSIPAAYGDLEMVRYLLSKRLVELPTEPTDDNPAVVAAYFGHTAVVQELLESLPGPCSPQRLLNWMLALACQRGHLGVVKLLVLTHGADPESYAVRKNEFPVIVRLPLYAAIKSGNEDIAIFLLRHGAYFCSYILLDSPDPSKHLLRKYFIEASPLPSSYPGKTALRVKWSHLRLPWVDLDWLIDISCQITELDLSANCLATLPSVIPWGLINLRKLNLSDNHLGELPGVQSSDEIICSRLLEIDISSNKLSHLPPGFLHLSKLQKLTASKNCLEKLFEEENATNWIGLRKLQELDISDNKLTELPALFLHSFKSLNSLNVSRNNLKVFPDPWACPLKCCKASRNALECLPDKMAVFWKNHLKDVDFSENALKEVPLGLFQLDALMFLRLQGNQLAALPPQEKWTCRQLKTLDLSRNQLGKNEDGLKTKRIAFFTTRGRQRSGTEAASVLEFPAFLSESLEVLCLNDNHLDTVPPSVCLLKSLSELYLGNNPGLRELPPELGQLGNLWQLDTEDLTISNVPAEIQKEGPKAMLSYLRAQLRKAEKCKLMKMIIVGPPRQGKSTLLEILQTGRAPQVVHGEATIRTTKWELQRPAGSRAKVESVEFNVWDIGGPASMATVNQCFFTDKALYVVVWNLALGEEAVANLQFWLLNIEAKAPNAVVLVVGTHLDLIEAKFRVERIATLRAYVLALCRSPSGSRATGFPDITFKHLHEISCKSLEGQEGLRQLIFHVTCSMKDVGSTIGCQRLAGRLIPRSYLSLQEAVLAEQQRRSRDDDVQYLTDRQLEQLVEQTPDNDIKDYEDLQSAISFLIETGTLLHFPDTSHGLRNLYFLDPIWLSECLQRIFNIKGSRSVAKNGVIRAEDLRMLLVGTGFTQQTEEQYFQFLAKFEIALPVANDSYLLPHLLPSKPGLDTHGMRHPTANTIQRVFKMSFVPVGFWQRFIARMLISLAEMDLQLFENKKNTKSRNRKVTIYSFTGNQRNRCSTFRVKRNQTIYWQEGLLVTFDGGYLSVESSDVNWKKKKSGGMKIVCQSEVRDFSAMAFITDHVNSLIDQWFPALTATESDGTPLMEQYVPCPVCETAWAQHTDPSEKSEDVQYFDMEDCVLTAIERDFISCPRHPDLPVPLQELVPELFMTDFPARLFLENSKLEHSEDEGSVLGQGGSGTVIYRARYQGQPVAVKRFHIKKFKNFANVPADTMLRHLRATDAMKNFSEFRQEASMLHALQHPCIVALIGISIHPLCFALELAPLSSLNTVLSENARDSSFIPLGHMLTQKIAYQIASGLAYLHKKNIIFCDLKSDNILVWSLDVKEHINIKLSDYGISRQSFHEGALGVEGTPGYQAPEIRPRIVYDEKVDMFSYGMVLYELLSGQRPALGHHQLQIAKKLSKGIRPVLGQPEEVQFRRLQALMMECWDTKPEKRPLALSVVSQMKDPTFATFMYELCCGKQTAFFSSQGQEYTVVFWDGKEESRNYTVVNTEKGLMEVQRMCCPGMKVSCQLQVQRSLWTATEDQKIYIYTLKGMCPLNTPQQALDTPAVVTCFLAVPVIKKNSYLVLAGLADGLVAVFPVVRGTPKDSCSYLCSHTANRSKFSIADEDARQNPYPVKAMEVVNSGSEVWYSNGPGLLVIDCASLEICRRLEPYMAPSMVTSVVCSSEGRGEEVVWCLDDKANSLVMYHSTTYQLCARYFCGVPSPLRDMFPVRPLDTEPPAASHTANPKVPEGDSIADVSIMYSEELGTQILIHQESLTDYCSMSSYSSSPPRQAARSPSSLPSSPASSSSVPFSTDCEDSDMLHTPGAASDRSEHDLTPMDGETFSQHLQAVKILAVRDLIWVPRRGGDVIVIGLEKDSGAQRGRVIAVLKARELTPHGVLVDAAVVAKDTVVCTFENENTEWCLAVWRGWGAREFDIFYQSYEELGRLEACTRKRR

T1 sequence (Q5S007 whole entry): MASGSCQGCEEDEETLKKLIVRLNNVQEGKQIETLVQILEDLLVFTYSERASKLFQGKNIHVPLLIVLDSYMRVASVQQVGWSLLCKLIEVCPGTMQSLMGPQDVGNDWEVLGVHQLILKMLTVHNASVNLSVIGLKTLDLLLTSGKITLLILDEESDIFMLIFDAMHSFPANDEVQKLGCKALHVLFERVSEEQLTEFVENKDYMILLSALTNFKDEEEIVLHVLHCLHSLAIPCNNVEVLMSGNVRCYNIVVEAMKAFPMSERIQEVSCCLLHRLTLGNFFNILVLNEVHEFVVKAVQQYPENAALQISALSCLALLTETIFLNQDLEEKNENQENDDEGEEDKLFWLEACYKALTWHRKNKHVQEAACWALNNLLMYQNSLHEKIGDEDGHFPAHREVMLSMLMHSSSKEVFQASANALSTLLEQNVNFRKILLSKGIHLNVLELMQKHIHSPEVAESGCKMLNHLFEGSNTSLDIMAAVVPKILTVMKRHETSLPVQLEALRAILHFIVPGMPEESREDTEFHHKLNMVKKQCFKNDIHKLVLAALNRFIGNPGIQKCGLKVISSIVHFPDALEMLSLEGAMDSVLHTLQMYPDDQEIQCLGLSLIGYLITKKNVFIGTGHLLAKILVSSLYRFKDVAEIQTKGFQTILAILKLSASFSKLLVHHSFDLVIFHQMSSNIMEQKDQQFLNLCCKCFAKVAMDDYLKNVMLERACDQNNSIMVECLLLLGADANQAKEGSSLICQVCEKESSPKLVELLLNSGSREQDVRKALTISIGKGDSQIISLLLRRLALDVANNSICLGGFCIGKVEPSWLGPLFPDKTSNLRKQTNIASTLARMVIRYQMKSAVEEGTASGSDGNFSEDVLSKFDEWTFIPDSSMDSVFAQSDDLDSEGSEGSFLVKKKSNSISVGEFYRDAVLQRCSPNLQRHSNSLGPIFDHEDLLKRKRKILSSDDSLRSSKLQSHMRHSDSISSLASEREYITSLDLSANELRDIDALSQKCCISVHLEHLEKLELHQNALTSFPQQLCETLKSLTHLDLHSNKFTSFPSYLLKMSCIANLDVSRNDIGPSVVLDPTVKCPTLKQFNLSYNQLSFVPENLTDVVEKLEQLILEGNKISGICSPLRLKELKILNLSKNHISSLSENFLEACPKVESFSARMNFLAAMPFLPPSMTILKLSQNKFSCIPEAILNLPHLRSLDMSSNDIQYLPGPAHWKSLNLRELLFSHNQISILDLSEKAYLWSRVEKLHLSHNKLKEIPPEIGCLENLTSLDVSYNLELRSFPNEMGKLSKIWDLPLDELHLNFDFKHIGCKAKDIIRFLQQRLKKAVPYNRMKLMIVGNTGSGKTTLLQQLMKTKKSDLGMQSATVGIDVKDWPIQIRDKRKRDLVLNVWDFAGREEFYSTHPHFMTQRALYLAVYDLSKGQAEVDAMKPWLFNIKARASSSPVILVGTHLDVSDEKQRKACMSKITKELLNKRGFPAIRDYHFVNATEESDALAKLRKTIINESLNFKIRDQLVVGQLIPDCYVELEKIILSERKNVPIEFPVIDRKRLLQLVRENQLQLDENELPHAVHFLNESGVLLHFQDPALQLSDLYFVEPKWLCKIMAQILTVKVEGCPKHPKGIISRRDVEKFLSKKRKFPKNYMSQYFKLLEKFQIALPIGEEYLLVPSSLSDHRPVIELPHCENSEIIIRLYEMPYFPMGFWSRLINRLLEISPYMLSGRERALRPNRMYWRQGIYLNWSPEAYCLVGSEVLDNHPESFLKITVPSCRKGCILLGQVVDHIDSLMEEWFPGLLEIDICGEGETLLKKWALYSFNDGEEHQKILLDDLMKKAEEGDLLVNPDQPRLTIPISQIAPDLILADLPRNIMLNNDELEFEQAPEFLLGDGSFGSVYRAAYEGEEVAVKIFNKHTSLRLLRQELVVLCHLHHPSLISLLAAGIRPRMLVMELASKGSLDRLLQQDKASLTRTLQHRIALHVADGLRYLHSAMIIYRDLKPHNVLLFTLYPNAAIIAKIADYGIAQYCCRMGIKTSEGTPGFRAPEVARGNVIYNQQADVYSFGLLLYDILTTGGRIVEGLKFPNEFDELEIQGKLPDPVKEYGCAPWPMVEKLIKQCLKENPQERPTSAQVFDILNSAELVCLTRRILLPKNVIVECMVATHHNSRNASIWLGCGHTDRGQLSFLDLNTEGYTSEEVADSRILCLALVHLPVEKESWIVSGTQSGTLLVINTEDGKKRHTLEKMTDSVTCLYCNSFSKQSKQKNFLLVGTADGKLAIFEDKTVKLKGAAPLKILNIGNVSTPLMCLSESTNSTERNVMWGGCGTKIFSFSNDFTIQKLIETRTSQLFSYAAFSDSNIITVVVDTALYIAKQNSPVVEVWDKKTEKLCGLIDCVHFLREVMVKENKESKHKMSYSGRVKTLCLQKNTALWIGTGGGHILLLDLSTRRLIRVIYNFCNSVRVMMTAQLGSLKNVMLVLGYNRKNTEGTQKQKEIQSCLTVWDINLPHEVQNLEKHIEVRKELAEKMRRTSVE

| IC50 (LRRK1) | Structure (SMILES) | HEK293 overexpression, pRab10 Thr73 and pSer935 LRRK2 immunoblot (LRRK2) |
| --- | --- | --- |
|  | O=C(Nc1cccnc1)c1cc(-c2ccnc(F)c2)ccc1OCc1ccccc1 [GSK2578215A] | All inhibitors ablated LRRK2-mediated phosphorylation of Rab10 at Thr73 and LRRK2 at Ser935 in parallel experiments. |
|  | COc1cc(C(=O)N2CCC(N3CCN(C)CC3)CC2)ccc1Nc1ncc2c(n1)N(C)c1ccccc1C(=O)N2C [LRRK2-IN1] | All inhibitors ablated LRRK2-mediated phosphorylation of Rab10 at Thr73 and LRRK2 at Ser935 in parallel experiments. |
| ~20 nM | Cc1ccc(C(=O)Nc2ccc(CN3CCN(C)CC3)c(C(F)(F)F)c2)cc1C#Cc1cnc2[nH]ncc2c1 [GZD-824] |  |
